According to US6150393A (priority 1999, dated 2000):

Assays:
[1] = test system: human mutated 5HT2A receptor, AP-3; assay: Receptor-mediated inositol phosphate (IP3) accumulation, AP-3; format: cell-based
Description: On day one, 1×10^7 293 cells per 150 mm plate were plated out. On day two, two reaction tubes were prepared (the proportions to follow for each tube are per plate): tube A was prepared by mixing 20 μg DNA (e.g., pCMV vector; pCMV vector AP-1 cDNA, etc.) in 1.2 ml serum free DMEM (Irvine Scientific, Irvine, Calif.); tube B was prepared by mixing 120 μl lipofectamine (Gibco BRL) in 1.2 ml serum free DMEM. Tubes A and B were then admixed by inversions (several times), followed by incubation at room temperature for 30-45 min. The admixture is referred to as the "transfection mixture". Plated 293 cells were washed with 1×PBS, followed by addition of 10 ml serum free DMEM. 2.4 ml of the transfection mixture was then added to the cells, followed by incubation for 4 hrs at 37° C./5% CO2. On day 3, cells were trypsinized and counted, followed by plating of 1×10^6 cells/well (poly D-lysine treated 12-well plates). Cells were permitted to adhere to the wells, followed by one wash with 1×PBS. Thereafter, 0.5 μCi ^3 H-inositol in 1 ml inositol-free DMEM was added per well. Protocol B.
On day 4, the cells were washed with 0.5 ml PBS and then 0.45 ml of assay medium was added containing inositol-free/serum free media, 10 μM pargyline, 10 mM lithium chloride, or 0.4 ml of assay medium and 50 ul of 10× ketanserin (ket) to a final concentration of 10 μM. The cells were then incubated for 30 minutes at 37° C. Then the cells were washed with 0.5 ml PBS and 200 ul of fresh/ice cold stop solution (1M KOH; 18 mM Na-borate; 3.8 mM EDTA) was added/well. The solution was kept on ice for 5-10 minutes or until the cells were lysed and then neutralized by 200 μl of fresh/ice cold neutralization sol. (7.5% HCL). The lysate was then transferred into 1.5 ml microcentrifuge tubes and 1 ml of chloroform/methanol (1:2) was added/tube. The solution was vortexed for 15 seconds and the upper phase was applied to a Biorad AG1-X8 anion exchange resin (100-200 mesh). The resin was washed with water and 0.9 ml of the upper phase was loaded onto the column. The column was washed with 10 mls of 5 mM myo-inositol and 10 ml of 5 mM Na-borate/60 mM Na-formate. The inositol trisphosphates were eluted into scintillation vials containing 10 ml of scintillation cocktail with 2 ml of 0.1 M formic acid/1 M ammonium formate. The columns were regenerated by washing with 10 ml of 0.1 M formic acid/3M ammonium formate and rinsed twice with dd H2 O and stored at room temperature in water.
Candidate compound identified in the assays of Examples 9a-9c were then evaluated for inositol phosphate accumulation, following the protocol of Example 5 ([…] expressing human mutated 5HT2A receptor, AP-3), modified as follows: tube A was prepared by mixing 16 μg DNA (e.g., pCMV vector; pCMV vector AP-1 cDNA, etc.) in 1.0 ml serum free DMEM (Irvine Scientific, Irvine, Calif.); tube B was prepared by mixing 60 μl lipofectamine (Gibco BRL) in 1.0 ml serum free DMEM. Tubes A and B were then admixed by inversions (several times), followed by incubation at room temperature for 30 min. The admixture is referred to as the "transfection mixture". Plated 293 cells were washed with 10 ml Serum Free DMEM, followed by addition of 11 ml Serum Free DMEM. 2.0 ml of the transfection mixture was then added to the cells, followed by incubation for 5 hrs at 37° C./5% CO2. On day 3, cells were trypsinized and counted, followed by plating of 1×10^6 cells/well (12-well plates). Cells were permitted to adhere to the wells for 8 hrs, followed by one wash with 1×PBS. Thereafter, 0.5 μCi ^3 H-inositol in 1 ml inositol-free DMEM was added per well.
On day 4, the cells were washed with 1.5 ml PBS and then 0.9 ml of assay medium was added containing inositol-free/serum free media, 10 μM pargyline, 10 mM lithium chloride, for 5 min in 37° C./5% CO2 followed by 100 μl addition of candidate compound diluted in the same material. The cells were then incubated for 120 minutes at 37° C. […]

5HT2 receptors [2] = assay: DOI locomotor activity test in rats (DOI inhibition study), intraperitoneal test compound; format: in vivo, rat (male Sprague-Dawley); settings: i.p. 30 min before DOI (0.3 mg/kg s.c.)
Description: FIG. 3 provides a graphic summary of dose-response results from in vivo analysis of compound 116082 in a 1-(2,5-dimethoxy-4-iodophenyl)-2-aminopropane ("DOI") inhibition study (fine movement; ambulation; and animal rearing outcome measures). 116082 was administered 30 min prior to DOI. Animals were placed in locomotor activity cages 10 min after DOI administration and activity was measured for 10 min. Results are presented as total activity counts over the 10 min of exposure to the locomotor activity apparatus.
FIG. 4 provides a graphic summary of dose-response results from in vivo analysis of compound 116081 in a DOI inhibition study (fine movement; ambulation; and animal rearing outcome measures). 116081 was administered 30 min prior to DOI. Animals were placed in locomotor activity cages 10 min after DOI administration and activity was measured for 10 min. Results are presented as total activity counts over the 10 min of exposure to the locomotor activity apparatus.
Assessment of 5-HT2 receptor antagonism in vivo was made by using the DOI locomotor activity test in rats as described by Krebs-Thomson (Psychopharmacology, 140:69-74, 1998).
Motor function was assessed by using automated locomotor activity cages. The rats were placed in a standard rodent cage surrounded by photocell beams, which allow for automated recording of motor activity. […]

[3] = test system: human 5HT2A receptor compared with human 5HT2C receptor; assay: Selectivity for 5HT2A over 5HT2C receptor (as measured by IC50 values); format: binding
[4] = DOI inhibition study in rats, oral administration of test compound (oral availability); format: in vivo, rat; settings: in vivo; rat; 50 mg/kg oral vs 10 mg/kg i.p., inferred from DOI test
Description: (§1) FIG. 6 provides a graphic summary of the effects of oral administration of 116082 and 116081 in a DOI inhibition study in rats. Values represent the mean±SEMs (n=6/group). #P<0.05 vs. vehicle/vehicle, *P<0.05 vs. vehicle/DOI, Student t-test.
(§2) Based upon the in vivo data developed, oral bioavailability of compounds […] was considered. The compounds were administered by oral gavage at a dose of 50 mg/kg, 30 min prior to DOI in rats (see Example 11A, supra). Animals were placed in the locomotor activity cages 10 min after DOI administration and activity was measured for 10 min. Results, presented in FIG. 6, provide total activity counts over the 10 min of exposure to the locomotor activity apparatus.

5HT2 receptors [5] = assay: as above; format: in vivo, rat
Description: as §1, §2

[6] = Bar catalepsy test in rats (extrapyramidal side effect analysis); format: in vivo, rat (male Sprague-Dawley)
5HT2 receptors [7] = settings: peripheral administration, 0.3 mg/kg; cited from earlier work
[8] = rodents; cited from earlier work
[9] = format: in vivo, rat (male Sprague-Dawley); settings: i.p.; total activity counts over 120 min after MK-801
Description: FIG. 7 provides a graphic summary of the reversal of MK-801-induced hyperactivity using 116081 (7A) and clozapine (7B). […] 116081 produced a significant reversal of the effect of MK-801 at a dose of 25 μmol/kg (10 mg/kg). Results are presented as total activity counts over the 120 min of exposure to the locomotor activity apparatus after administration of MK-801. Data (mean±SEM) were analyzed by ANOVA followed by Dunnett's test (n=6-8/group).
Because part of the symptomatology of schizophrenia may be related to altered glutamate transmission at the NMDA receptor, the reversal of MK-801-induced hyperlocomotor activity in rodents has been used routinely as an animal model for detecting potential antipsychotic activity (O'Neill et al., Pharmacology Biochem. Behav., 63: 237-243, 1999). Thus, this test was used to determine potential antipsychotic properties of 116081 in vivo.
Motor activity was assessed using automated locomotor activity cages as described above (Example 11(A), supra.). Male Sprague-Dawley rats (250-350 g body weight) were administered test compounds (i.p.) and placed in the locomotor activity cages for 30 min of habituation. Following habituation,animals were administered MK-801 (0.5 μmol/kg=0.17 mg/kg, s.c.) and then immediately placed back into the locomotor activity cages, and activity was measured for 120 min. A reversal of MK-801-induced motor activity (as shown by a significant […] of ambulation) in rats is considered to be predictive of the ability of the test compound to reverse psychotic symptoms.

Cn1cc(Br)c(-c2cccc(NC(=O)Nc3ccc(F)cc3)c2)n1 [Compound 116082, {[3-(4-bromo-1-methylpyrazol-3-yl)phenyl]amino}-N-(4-fluorophenyl)carboxamide]
IP3 % of Control ([1]; 10 μM test compound, triplicate, control without test compound): 11%
profile in in vitro functional assays ([1]; in vitro functional assays): selective 5HT2A inverse agonist properties
reversal of DOI-induced motor dysfunction (5HT2 receptors [2]): beneficially reverses DOI-induced motor dysfunction
selectivity preference for the 5HT2A receptor compared with the 5HT2C receptor [3]: 100 fold
bioavailability [4]: ≥ 20%
oral efficacy compared with intraperitoneal administration (5HT2 receptors [5]; 50 mg/kg oral vs 10 mg/kg i.p.): as efficacious as a 10 mg/kg dose of the same compounds administered intraperitoneally
reversal of DOI-induced motor dysfunction, oral (5HT2 receptors [5]; oral gavage 50 mg/kg, 30 min prior to DOI): reversed DOI-induced motor dysfunction in rats
oral activity (5HT2 receptors [5]; rat, DOI test, 50 mg/kg oral): orally active
extra-pyramidal side effects ([6]; at a dose 8 times greater than the dose required to block 5HT2A receptors in vivo): does not induce extra-pyramidal side effects in rats
induction of catalepsy ([6]; i.p., 10 to 80 mg/kg): does not induce catalepsy in rats
time spent on the bar ([6]; i.p., 10 to 80 mg/kg, 60 min before test): did not induce a dose-dependent increase in time spent on the bar
selectivity ratio ([6]; rat, in vivo, ip, bar test versus DOI test, rats, read-out: dose without extra-pyramidal side effects relative to dose required to block 5HT2A receptors in vivo): 8

COc1cc(CC(C)N)c(OC)cc1I (stereo not drawn) [DOI, 1-(2,5-dimethoxy-4-iodophenyl)-2-aminopropane]
motor function effect of DOI alone (5HT2 receptors [7]): produces motor dysfunction in rats as shown by a decrease in ambulation

C[C@]12N[C@H](Cc3ccccc31)c1ccccc12 [MK-801]
effect of MK-801 alone on locomotor activity and stereotypy [8]: induces significant increases in locomotor activity and stereotypy

CN1CCN(C2=Nc3cc(Cl)ccc3Nc3ccccc32)CC1 [clozapine, reference compound]
attenuation of MK-801-induced hyperactivity (ambulations) [9]: dose-dependently attenuated MK801-induced hyperactivity
